Assay results as given in patent US8178577B2, “Tricyclic derivatives as potent and selective histone deacetylase inhibitors” (Shenzhen Chipscreen Biosciences Ltd., priority 2008, dated 2012).

What was measured:
HDAC4/5 = test: MEF2 reporter gene assay in HeLa cells; type: cell-based; settings: relative to SAHA, 24 hours
Description: (§1) HDAC subtype selectivity inhibition assay of tested compounds was carried out by several reporter gene assays experiments. Briefly, HeLa cells were seeded in 96-well plates the day before transfection to give a confluence of 50-80%. Cells were transfected with one of reporter gene plasmids containing a promoter sequences or response elements upstream of a luciferase gene construct using FuGene6 transfection reagent according to the manufacturer's instructions (Roche). The promoter or response elements including p21-promoter, gdf11-promoter, serum response element (SRE), MEF-binding element were fused upstream to the luciferase gene reporter construct. For normalizing the transfection efficiency, a GFP expression plasmid was cotransfected. Cells were allowed to express protein for 24 hours followed by addition of individual compounds or the vehicle (DMSO). 24 hours later the cells were harvested, and the luciferase assays were performed using the luciferase assay kit according to the manufacturer's instructions (Promega). To normalize the data from the luciferase assays, β-galactosidase activity from transfected cells was measured using a kit (Promega) as instructed by the manufacturer.

HDAC7 = target: T1, HDAC7 (Homo sapiens, UniProt Q8WUI4); test: Nur77 reporter gene assay in HeLa cells; type: cell-based; settings: HeLa, 24 h, read-out: % of SAHA Response for HDAC7 at 10 μM (Nur77 reporter gene)
T1 construct: endogenous in cells; host or cells: HeLa
T1 sequence (Q8WUI4 1-952): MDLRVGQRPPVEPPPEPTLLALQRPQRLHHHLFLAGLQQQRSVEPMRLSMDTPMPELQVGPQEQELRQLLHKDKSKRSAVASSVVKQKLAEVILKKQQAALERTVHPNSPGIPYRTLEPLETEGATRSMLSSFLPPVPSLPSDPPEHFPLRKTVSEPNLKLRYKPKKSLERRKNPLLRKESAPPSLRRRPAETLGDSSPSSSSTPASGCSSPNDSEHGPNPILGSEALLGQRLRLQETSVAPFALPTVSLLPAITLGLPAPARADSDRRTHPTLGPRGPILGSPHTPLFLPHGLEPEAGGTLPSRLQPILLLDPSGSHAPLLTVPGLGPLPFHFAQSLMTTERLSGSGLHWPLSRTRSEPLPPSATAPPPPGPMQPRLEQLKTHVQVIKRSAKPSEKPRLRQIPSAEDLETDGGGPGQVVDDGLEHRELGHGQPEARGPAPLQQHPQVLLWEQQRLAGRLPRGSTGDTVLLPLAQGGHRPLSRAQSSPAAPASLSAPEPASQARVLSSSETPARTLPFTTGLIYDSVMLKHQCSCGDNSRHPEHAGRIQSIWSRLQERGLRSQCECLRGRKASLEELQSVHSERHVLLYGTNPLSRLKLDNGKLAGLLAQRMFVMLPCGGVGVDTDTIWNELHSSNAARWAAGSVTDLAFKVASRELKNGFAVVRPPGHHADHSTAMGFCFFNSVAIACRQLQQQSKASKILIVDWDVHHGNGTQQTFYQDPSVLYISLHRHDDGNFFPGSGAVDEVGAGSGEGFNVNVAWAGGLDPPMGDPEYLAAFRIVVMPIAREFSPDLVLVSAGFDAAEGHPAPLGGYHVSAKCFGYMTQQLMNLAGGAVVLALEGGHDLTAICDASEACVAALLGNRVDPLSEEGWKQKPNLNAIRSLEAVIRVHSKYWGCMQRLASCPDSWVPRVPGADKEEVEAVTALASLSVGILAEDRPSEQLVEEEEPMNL
Description: as §1

Hut-78 = test: Cell proliferation (MTS), Hut-78; type: cell-based; settings: Homo sapiens, HuT78, 72 hours
Description: (§2) Measurement of In Vivo Cell Proliferation:
(§3) Tumor cells were trypsinized and plated into 96-well plates at 3,000 per well and incubated in complete medium with 10% FBS for 24 hours. Compounds were added over a final concentration range of 100 μmol/L to 100 nmol/L in 0.1% DMSO and incubated for 72 hours in complete medium. The effects on proliferation were determined by addition of MTS reagent (Promega) according to the instruction, incubation for 2 hours at 37° C. in CO2 incubator, and record the absorbance at 490 nm using an ELISA plate reader.

HDAC Class I = test: P21 reporter gene assay in HeLa cells; type: cell-based; settings: relative to SAHA, 24 hours
Description: as §1

A549 = test: Cell proliferation (MTS), A549; type: cell-based; settings: Homo sapiens, 72 hours
Description: as §2, §3

HL60 = test: Cell proliferation (MTS), HL60; type: cell-based; settings: Homo sapiens, HL-60, 72 hours
Description: as §2, §3

total HDAC enzyme = test: In vitro inhibition of total HDAC enzyme activity (BIOMOL HDAC Fluorimetric Assay/Drug Discovery Kit, HeLa extract); type: biochemical
Description: Measurement of In Vitro Inhibition of Total HDAC Enzyme Activity:
The in vitro inhibition of total HDAC enzyme was determined by HDAC Fluorimetric Assay/Drug Discovery Kit (BIOMOL) according to manufacture's instruction. • 1. Add Assay buffer, diluted trichostatin A or test inhibitor to appropriate wells of the microtiter plate. Following table lists examples of various assay types and the additions required for each test.
• 2. Add diluted HeLa extract or other HDAC sample to all wells except those that are to be “No Enzyme Controls” (Blank). • 3. Allow diluted Fluor de LYS™ Substrate and the samples in the microtiter plate to equilibrate to assay temperature (25° C.). • 4. Initiate HDAC reactions by adding diluted substrate (25 μl) to each well and mixing thoroughly. • 5. Allow HDAC reactions to proceed for desired length of time and then stop them by addition of Fluor de Lys™ Developer (50 μl). Incubate plate at room temperature (25° C.) for 10-15 min. • 6. Read samples in a microtiter-plate reading fluorimeter capable of excitation at a wavelength in the range 350-380 nm and detection of emitted light in the range 440-460 nm. Measurement of In Vivo Inhibition of HDAC Subtype Activity: […]

HeLa = test: Cell proliferation (MTS), HeLa; type: cell-based; settings: Homo sapiens, 72 hours
Description: as §2, §3

HDAC3 = target: T2, HDAC3 (Homo sapiens, UniProt O15379); test: gdf11 reporter gene assay in HeLa cells; type: cell-based; settings: HeLa, 24 h, read-out: % of SAHA Response for HDAC3 at 10 μM (gdf11 reporter gene)
T2 construct: endogenous in cells; host or cells: HeLa
T2 sequence (O15379 whole entry): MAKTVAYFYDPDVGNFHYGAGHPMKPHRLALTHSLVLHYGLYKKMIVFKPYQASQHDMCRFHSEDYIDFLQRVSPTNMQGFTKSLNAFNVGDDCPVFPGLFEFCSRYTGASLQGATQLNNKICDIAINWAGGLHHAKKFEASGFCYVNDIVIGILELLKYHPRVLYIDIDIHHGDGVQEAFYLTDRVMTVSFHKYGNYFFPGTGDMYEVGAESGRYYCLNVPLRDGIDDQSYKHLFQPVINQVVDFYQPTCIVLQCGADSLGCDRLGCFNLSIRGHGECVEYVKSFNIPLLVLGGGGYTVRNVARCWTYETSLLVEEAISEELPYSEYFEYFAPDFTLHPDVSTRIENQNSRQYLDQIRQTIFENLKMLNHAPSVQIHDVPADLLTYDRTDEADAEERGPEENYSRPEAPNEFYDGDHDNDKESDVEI
T2 sequence (Q9Y618 whole entry partner): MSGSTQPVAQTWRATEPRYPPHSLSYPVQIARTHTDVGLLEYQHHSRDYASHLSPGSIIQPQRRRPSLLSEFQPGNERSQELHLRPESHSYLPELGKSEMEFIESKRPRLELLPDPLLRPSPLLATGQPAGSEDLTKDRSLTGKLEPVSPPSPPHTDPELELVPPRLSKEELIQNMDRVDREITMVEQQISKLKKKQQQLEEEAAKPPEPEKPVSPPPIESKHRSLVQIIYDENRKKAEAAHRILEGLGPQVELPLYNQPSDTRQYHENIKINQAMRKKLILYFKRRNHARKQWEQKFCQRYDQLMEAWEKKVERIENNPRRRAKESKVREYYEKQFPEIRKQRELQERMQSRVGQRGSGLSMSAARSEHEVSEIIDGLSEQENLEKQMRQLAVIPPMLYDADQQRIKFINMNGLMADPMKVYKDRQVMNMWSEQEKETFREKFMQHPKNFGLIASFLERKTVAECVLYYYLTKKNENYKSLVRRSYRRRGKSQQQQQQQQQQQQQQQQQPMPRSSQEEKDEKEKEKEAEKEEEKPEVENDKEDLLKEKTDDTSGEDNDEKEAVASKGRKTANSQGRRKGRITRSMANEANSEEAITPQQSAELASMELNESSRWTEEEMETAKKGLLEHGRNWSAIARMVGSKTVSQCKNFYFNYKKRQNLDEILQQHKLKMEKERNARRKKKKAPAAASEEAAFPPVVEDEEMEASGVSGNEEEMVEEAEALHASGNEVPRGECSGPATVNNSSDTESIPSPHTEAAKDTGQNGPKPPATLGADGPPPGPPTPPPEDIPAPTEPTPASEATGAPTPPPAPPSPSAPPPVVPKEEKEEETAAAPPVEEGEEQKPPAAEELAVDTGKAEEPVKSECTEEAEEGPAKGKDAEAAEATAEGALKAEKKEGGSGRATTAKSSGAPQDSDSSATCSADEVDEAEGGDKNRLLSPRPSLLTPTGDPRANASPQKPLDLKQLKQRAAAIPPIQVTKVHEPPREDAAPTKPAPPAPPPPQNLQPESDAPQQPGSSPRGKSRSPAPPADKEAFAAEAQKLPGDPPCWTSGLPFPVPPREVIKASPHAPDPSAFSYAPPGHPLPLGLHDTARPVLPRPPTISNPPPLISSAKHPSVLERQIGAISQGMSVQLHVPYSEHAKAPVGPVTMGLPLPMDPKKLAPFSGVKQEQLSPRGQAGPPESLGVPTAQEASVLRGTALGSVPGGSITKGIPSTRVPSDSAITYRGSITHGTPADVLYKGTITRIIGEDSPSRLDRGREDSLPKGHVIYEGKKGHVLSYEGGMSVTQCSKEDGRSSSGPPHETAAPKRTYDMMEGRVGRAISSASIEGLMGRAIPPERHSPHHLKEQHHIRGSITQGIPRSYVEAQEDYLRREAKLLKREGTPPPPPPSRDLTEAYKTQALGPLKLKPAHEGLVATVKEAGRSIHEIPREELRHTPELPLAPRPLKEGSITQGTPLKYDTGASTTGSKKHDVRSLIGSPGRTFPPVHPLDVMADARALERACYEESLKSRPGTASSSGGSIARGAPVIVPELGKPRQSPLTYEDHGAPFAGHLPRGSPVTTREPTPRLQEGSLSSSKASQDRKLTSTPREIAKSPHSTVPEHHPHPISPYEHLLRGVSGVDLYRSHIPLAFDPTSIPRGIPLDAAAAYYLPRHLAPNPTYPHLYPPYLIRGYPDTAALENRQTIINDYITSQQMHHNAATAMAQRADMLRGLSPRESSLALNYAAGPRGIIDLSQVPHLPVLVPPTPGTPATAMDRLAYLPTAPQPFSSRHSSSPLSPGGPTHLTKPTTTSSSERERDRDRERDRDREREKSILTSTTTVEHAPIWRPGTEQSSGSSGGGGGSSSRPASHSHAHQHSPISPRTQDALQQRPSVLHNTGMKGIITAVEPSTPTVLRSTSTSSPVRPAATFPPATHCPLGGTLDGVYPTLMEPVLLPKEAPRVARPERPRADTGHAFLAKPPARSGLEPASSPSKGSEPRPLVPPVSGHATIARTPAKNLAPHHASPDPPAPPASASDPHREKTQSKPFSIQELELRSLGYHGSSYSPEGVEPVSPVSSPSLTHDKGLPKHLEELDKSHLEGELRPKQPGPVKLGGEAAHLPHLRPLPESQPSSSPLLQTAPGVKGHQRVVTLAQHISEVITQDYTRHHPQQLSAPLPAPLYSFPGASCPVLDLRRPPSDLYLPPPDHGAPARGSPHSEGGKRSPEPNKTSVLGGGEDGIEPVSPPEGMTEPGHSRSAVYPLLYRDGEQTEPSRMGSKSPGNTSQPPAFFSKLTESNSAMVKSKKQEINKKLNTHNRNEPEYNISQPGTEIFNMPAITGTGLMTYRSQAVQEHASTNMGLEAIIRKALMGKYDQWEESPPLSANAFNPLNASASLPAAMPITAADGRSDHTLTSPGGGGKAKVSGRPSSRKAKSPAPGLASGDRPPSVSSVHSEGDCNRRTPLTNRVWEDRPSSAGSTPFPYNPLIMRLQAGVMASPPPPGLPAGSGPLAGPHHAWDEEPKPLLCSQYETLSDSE
Description: as §1

Row | Compound | % of SAHA Response for HDAC4/5 at 10 μM (MEF2 reporter gene) (HDAC4/5) [%] | activation at 10 µM (HDAC7) [%] | GI50 (Hut-78) [µM] | % of SAHA Response for HDAC Class I at 10 μM (P21 reporter gene) (HDAC Class I) [%] | GI50 (A549) [µM] | GI50 (HL60) [µM] | % of Inhibition on total HDAC enzyme at 30 μM (total HDAC enzyme) [%] | GI50 (HeLa) [µM] | activation at 10 µM (HDAC3) [%]
1 | Nc1ccccc1NC(=O)CCCCCNC(=O)C=C1c2ccccc2-c2ccccc21 [Example 13, 6-(2-(9H-fluoren-9-ylidene)acetamido)-N-(2-aminophenyl)hexanamide] | 118 | 66 | 1.35 | 133 | 4.9 | 1.35 | 50 | 8.32 | 66
2 | Nc1cc(F)ccc1NC(=O)CCCCCNC(=O)C=C1c2ccccc2-c2ccccc21 [Example 12, 6-(2-(9H-fluoren-9-ylidene)acetamido)-N-(2-amino-4-fluorophenyl)hexanamide] | 101 | 38 | 3.89 | 39 | 18.2 | 2.29 | 50 | 22.9 | 26
